Laboratory results taken from the supplement of paper PMC11208160.

test: recombinant barcode read abundance after kanamycin selection (control-corrected) (log10(CPM+1)); higher = more efficient recombination; sequences stand for … in AGTGCAGAGAAAATCGGCCAGTTTTCTCTGCCTGCAGTCCGCATGCCGT…AGATTTATGCAGCGGACTGCCTTTCTCCCAAAGTGATAAACCGGACAGTATCATGGACCGGTTTTCCCGGTAATCCGTATTTGCAAGGTTGGTTTCACT; site = the 11-nt target
In short: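 Values are log10(CPM+1) from a pooled E. coli screen of targets paired with IS621 bridge RNA target-binding loops. Recombination efficiency here means counts per million of recombinant-junction barcodes, averaged and control-corrected. Plates were chloramphenicol/ampicillin LB agar for the control and chloramphenicol/ampicillin/kanamycin with 0.1 mM IPTG, two replicates each.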
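Further: IS621 recombinase and bridge RNA in Escherichia coli cells.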

Sequence | recombinant barcode read abundance (log10)
ATAACAGCTTGGGTTCTAACCTGTTGCCT (site ATAAGAGCTAG) | 0.279
ATAACAGCTTGGGTTCTAACCTGTTGCCT (site ATAATAGCTAG) | 0.0968
ATAACGGCTTGGGTTCTAACCTGTTGCCT (site ATAACGGCTAG) | 0.434
ATAACGGCTTGGGTTCTAACCTGTTGCCT (site GACGGACCTTA) | 0.0648
ATAAGTGCTTGGGTTCTAACCTGTTGCCA (site ATAAGTGCTTG) | 1.15
ATAAGTGCTTGGGTTCTAACCTGTTGCCA (site GTGAGTGCTTG) | 0.0783
ATAATAGCTTGGGTTCTAACCTGTTGCAT (site ATAATAGCTAT) | 2.02
ATAATAGCTTGGGTTCTAACCTGTTGCAT (site GTAATAGCTAT) | 0.0687
ATACGGACTTGGGTTCTAACCTGTTGCTA (site ATAAGGACTTA) | 0.0991
ATACGGACTTGGGTTCTAACCTGTTGCTA (site ATACGGACTTA) | 2.04
ATACGGACTTGGGTTCTAACCTGTTGCTA (site ATAGGGACTTA) | 0.186
ATACGGACTTGGGTTCTAACCTGTTGCTA (site ATATGGACTTA) | 0.0991
ATACTCTCTTGGGTTCTAACCTGTTGCCT (site AGACTCTCTAG) | 0
ATACTCTCTTGGGTTCTAACCTGTTGCCT (site ATACTCTCTAG) | 2.43
ATAGAGTCTTGGGTTCTAACCTGTTGCCG (site ATAGAGTCTCG) | 1.95
ATAGAGTCTTGGGTTCTAACCTGTTGCCG (site GCTCCTCCTAT) | 0.173
ATAGGTACTTGGGTTCTAACCTGTTGCTT (site ATAGGTACTAA) | 1.65
ATAGGTACTTGGGTTCTAACCTGTTGCTT (site CTAGGTACTAA) | 0.534

Sequence | recombinant barcode read abundance (log10)
ATAGGTCCTTGGGTTCTAACCTGTTGCTG (site ATAGGTCCTCA) | 2.91
ATAGGTCCTTGGGTTCTAACCTGTTGCTG (site ATGGGTCCTCG) | 0.0247
ATATGAGCTTGGGTTCTAACCTGTTGCCA (site ATATGAGCTTG) | 0.884
ATATGAGCTTGGGTTCTAACCTGTTGCCA (site TTATGAGCTCG) | 0.0938
ATATGTACTTGGGTTCTAACCTGTTGCCG (site ATATGTACTCG) | 1.07
ATATGTACTTGGGTTCTAACCTGTTGCCG (site ATATGTACTTG) | 0.167
ATATGTCCTTGGGTTCTAACCTGTTGCAG (site ATAGGACCTCT) | 0
ATATGTCCTTGGGTTCTAACCTGTTGCAG (site ATATGTCCTCT) | 1.88
ATATTATCTTGGGTTCTAACCTGTTGCCA (site ATATGATCTAG) | 0.0788
ATATTATCTTGGGTTCTAACCTGTTGCCA (site ATATTATCTTG) | 0.29
ATATTGTCTTGGGTTCTAACCTGTTGCCA (site ATATTGCCTAG) | 0.0374
ATATTGTCTTGGGTTCTAACCTGTTGCCA (site ATATTGTCTTG) | 0.611
ATCACTACTTGGGTTCTAACCTGTTGCCT (site ATCACTACTAG) | 0.207
ATCACTACTTGGGTTCTAACCTGTTGCCT (site CTTACTACTAG) | 0.0823
ATCCGCTCTTGGGTTCTAACCTGTTGCCT (site ATCCGCTCTAG) | 2.06
ATCCGCTCTTGGGTTCTAACCTGTTGCCT (site CTCCGCTCTAG) | 1
ATCCGCTCTTGGGTTCTAACCTGTTGCCT (site GTCCGCTCTAG) | 0.0221
ATCCGCTCTTGGGTTCTAACCTGTTGCCT (site TTCCGCTCTAG) | 0.771
